Values of other authors, collected in patent publication US7820652B2, “Regimen for the administration of rifamycin-class antibiotics” (ActivBiotics Pharma, LLC, priority 2003, dated 2010).

## CO[C@H]1/C=C/O[C@@]2(C)Oc3c(C)c(O)c4c(=O)c(c5oc6cc(N7CCN(CC(C)C)CC7)cc(O)c6nc-5c4c3C2=O)NC(=O)/C(C)=C\C=C\[C@H](C)[C@H](O)[C@@H](C)[C@@H](O)[C@@H](C)[C@H](OC(C)=O)[C@@H]1C [rifalazil]
Mycobacterium species
  activity against mycobacterium species: effective
Mycobacterium species; once or twice-a-week dose regimen, U.S. Pat. No. 6,316,433
  efficacy against mycobacterium species: efficacious
Clinical trials, twice-a-week dosing regimen
  number and severity of adverse reactions: clear dose-related incidence
Daily administration
  blood cell counts and blood hemoglobin: changes in blood cell counts
Daily dose regimen
  adverse reactions: severe adverse reactions
once- or twice-a-week dosing regimen
  incidence of adverse reactions: reduced, but did not eliminate
